The text below walks through data of ChEMBL document CHEMBL1255274, “Microdialysis study of imipenem distribution in the peritoneal fluid of rats with experimental acute pancreatitis” (Antimicrob Agents Chemother, 2008).

Holding throughout (type): ADME, organism-based
Holding throughout (set-up): dose 30 mg/kg, route intravenous

Series [1] can be described thus: Clearance in pancreatitis Sprague-Dawley rat blood at 30 mg/kg, iv after 30 mins.
Series [2] is described as follows: Half life in pancreatitis Sprague-Dawley rat blood at 30 mg/kg, iv after 30 mins.
Series [3] is described as follows: Cmax in pancreatitis Sprague-Dawley rat blood at 30 mg/kg, iv after 30 mins.
The nature of series [4]: Selectivity ratio of AUC in pancreatitis Sprague-Dawley rat peritoneal fluid to AUC in pancreatitis Sprague-Dawley rat blood at 30 mg/kg, iv after 30 mins. As to conditions: read-out: Ratio AUC.
Series [5] in a line: Cmax in pancreatitis Sprague-Dawley rat peritoneal fluid at 30 mg/kg, iv after 30 mins.
A short description of series [6]: Half life pancreatitis Sprague-Dawley rat peritoneal fluid at 30 mg/kg, iv after 30 mins.
Series [7] can be described thus: Tmax in pancreatitis Sprague-Dawley rat blood at 30 mg/kg, iv after 30 mins.
Series [8] can be described thus: Tmax in pancreatitis Sprague-Dawley rat peritoneal fluid at 30 mg/kg, iv after 30 mins.

`C[C@@H](O)[C@H]1C(=O)N2C(C(=O)O)=C(SCCN=CN)C[C@H]12` [IMIPENEM ANHYDROUS] registered a clearance in series [1] of 17 mL/min/kg. For the same compound, the half-life in series [2] came to 17.3 min; in series [6], 17.6 min. Also, the Cmax in series [3] was 53.9 µg/mL; in series [5], 51.8 µg/mL. In addition, in series [4], the Kp at 0.5 h worked out at 1.08. Moreover, the Tmax in series [7] was 35 min; in series [8], 36.7 min.
